# Assay results from patent EP3241555A1, “USE OF PYROPHOSPHATE ION ANALOGUES FOR THE TREATMENT OF HPV INFECTION” (Agencia Pública Empresarial Sanitaria Costa Del Sol, priority 2014, dated 2016).
# Where “and” joins values, the source holds several entries; their conditions need not be identical. Equal values may be shown once.
# Key:
# [1] = molecular target: HIV reverse transcriptase (HIV, RT) (Human immunodeficiency virus type 1 group M subtype B, UniProt P04585); details: read-out: ID50; cited from earlier work
# [2] = test system: HPV; details: used topically, master formulation as a cream; different types of viral warts; cited from earlier work
# [3] = test system: HPV; experiment: Expanded trial in 28 patients with warts treated with topical foscarnet; assay type: in vivo, human
# Protocol: A total of 28 patients, from which 64.3% are female patients and 35.7% male patients to whom treatment was administered, were studied. The mean age was […] (6-64) and with a median age of 16 years.
# It is important to point out that 96.4% of the patients had received prior treatments without any results, where the most common treatments are cryotherapy involving 78.6% of said patients and topical keratolytic drugs involving 67.9% of them.
# Most of the patients (71.4%) applied the treatment 2 times a day and in 78.6% of the cases, the area of application was banded for the night. The rest of the patients applied the treatment 1 or 3 times/day.
# The mean duration of the treatment was 11.57 (3-28) weeks.
smiles,measurement,setting,value
O=C(O)P(=O)(O)O [Trisodium phosphonoformate],IC50,[1],~1000 nM
Nc1ccn(C[C@@H](CO)OCP(=O)(O)O)c(=O)n1 [cidofovir],cure rates,[2],high cure rates
"O=C(O)P(=O)(O)O [foscarnet, phosphonoformic acid]","Adverse effects to treatment: No, Percentage",[3]; 28 patients,89.3%
same,"Adverse effects to treatment: No, Percentage valid",[3]; 28 patients,89.3%
same,"Adverse effects to treatment: Yes, Percentage valid",[3]; 28 patients,10.7%
same,"Response to treatment: Complete, Percentage",[3]; 28 patients,39.3%
same,"Response to treatment: Complete, Percentage valid",[3]; 28 patients,39.3%
same,"Response to treatment: No, Percentage",[3]; 28 patients,28.6%
same,"Response to treatment: No, Percentage valid",[3]; 28 patients,28.6%
same,"Response to treatment: Partial, Percentage",[3]; 28 patients,32.1%
same,"Response to treatment: Partial, Percentage valid",[3]; 28 patients,32.1%
same,percentage of response,"[3]; 28 patients, full plus partial response",71.4%
same,"Adverse effects to treatment: Yes, Percentage","[3]; 28 patients, very mild localized adverse effects (erythema or slight irritation/itch)",10.7%
same,"Time effect starts (weeks), Maximum",[3]; N valid 28,16 weeks
same,"Time effect starts (weeks), Mean",[3]; N valid 28,5.25 (± 4.98) weeks and 5.25 weeks
same,"Time effect starts (weeks), Median",[3]; N valid 28,4.00 weeks
same,"Time effect starts (weeks), Minimum",[3]; N valid 28,0 weeks
same,"Adverse effects to treatment: No, Frequency",[3]; number of patients out of 28,25
same,"Response to treatment: Complete, Frequency",[3]; number of patients out of 28,11
same,"Response to treatment: No, Frequency",[3]; number of patients out of 28,8
same,"Response to treatment: Partial, Frequency",[3]; number of patients out of 28,9
same,"Recurrence: No, Frequency","[3]; number of patients out of 28, 1 lost",27
same,"Adverse effects to treatment: Yes, Frequency","[3]; number of patients out of 28, very mild localized adverse effects (erythema or slight irritation/itch)",3
same,"Recurrence: No, Percentage valid",[3]; of 27 valid patients,100.0%
same,"Recurrence: No, Percentage","[3]; of 28 patients, 1 lost",96.4%
